Patent US20260265360A1, “USE OF ANTI-FAM19A5 ANTAGONISTS FOR TREATING HEARING DISORDERS” (NEURACLE SCIENCE CO., LTD., priority 2023, published 2026)

Assays:
[1] = tested on: mouse primary spiral ganglion neurons; experiment: Reversal of FAM19A5-induced inhibition of neurite outgrowth; format: cell-based; settings: FAM19A5 protein 10 μM alone, treated 0 DIV, NF200 staining at 3 DIV
Experimental: Sprial ganglion neuron were cultured in culture media consisting of high-glucose (4.5 mg/mL) DMEM, 0.1 mg/ml penicillin, 0.1 mg/mL streptomycin, N2 supplement, and 10 µg/mL insulin and was designated here as “5K” because in this media, [K+]=5.4 mM. A depolarizing media, designated as “30K,” in which Na was replaced with equimolar K to raise [K] to 30 mM while maintaining osmolarity was also used.
Dissociated spiral ganglion cell cultures were prepared from postnatal day 4-5 (P4-5) cochleae and maintained using a procedure modified from the methods described by Bok et al., J Neurosci 23 (3): 777-87 (2003), which is incorporated herein by reference in its entirety. […]
Neurite outgrowth was quantified by measuring the total length of neurites per neuron. Neurons were stained with NF200 at either 2 or 3 DIV, and neurite lengths were measured using the Fiji (Image J). Individual neurons were manually selected, and neurite lengths were determined using the Simple Neurite Tracer plugin.
Briefly, mouse primary spiral ganglion neurons (cultured and processed as described in Example 11) were treated with a FAM19A5 protein (10 μM) alone or in combination with an anti-FAM19A5 antibody (1-30) (100 nM) at 0 DIV (day in vitro). […] Then, at 3 DIV, the neurons were stained for neurofilament protein (NF200) expression and the average neurite length quantified.

[2] = tested on: inner hair cells of mouse cochlear explant; experiment: Reversal of FAM19A5-induced inhibition of synaptogenesis (CtBP2 puncta); format: cell-based; settings: FAM19A5 protein 1 μM alone, treated 1 DIV, stained 2 DIV
Experimental: Cochlear explant were cultured in medium consisting of plating media, which consist of Neurobasal media (Invitrogen), 1% N2 supplement, and 10 μg/mL Ampicillin with culture media with additional 1% FBS.
Postnatal day 4-5 (P4-5) C57BL/6 mice were sacrificed for inner ear dissection. Mouse head was bisected, and brain tissue was removed. Cochlea was carefully separated the from the extraneous bones in ice-cold HBSS (5 mM HEPES/1.3 mM CaCl2), 0.9 mM MgCl2, pH 7.4) or External solution (1.2 mM CaCl2), 1 mM MgCl2, 5 mM HEPES in HBSS). Then the stria vascularis and spiral bone plate was removed, and cochlea was cut into two to three sections. […]
Mouse cochlear explant cultures were treated with FAM19A5, FAM19A5 combined with a FAM19A5 antagonist (e.g., described herein, e.g., 1-30 antibody), or a FAM19A5 antagonist (e.g., described herein, e.g., 1-30 antibody) alone at 1 DIV to determine the level of synaptogenesis at 2 DIV by immunostaining CtBP2, a ribbon synapse marker. To quantify the number of CtBP2 puncta of individual inner hair cells, z-stack confocal images were exported in “multi-page” and the number of CtBP2 puncta from each individual inner hair cells were measured using ROI manger and multi-point tool from Fiji (Image J). Number of CtBP2 puncta from five individual inner hair cells were counted per image and 3 z-stack images were measured from each treatment group. […]

**Q.** “FAM19A5 protein: FAM19A5 protein added to neuron and cochlear explant cultures to inhibit neurite outgrowth and synaptogenesis” was tested. Which “total neurite length vs non-treated cells” value [1] did it give?
**A.** significantly reduced

**Q.** What about the “number of CtBP2 puncta in inner hair cells vs control group” value [2] of the same substance?
**A.** significantly decreased
